Peptide text beside a SMILES is read from it.
Assay: Amount of magnesium captured per 100 g of substance (X), ion-selective electrode method
Assay type: physicochemical
Method: As for the substance (X), the amount of magnesium captured per 100 g of the substance (X) is preferably 1 g or more, as measured by the ion-selective electrode method.
When the substance (X) is a hydrate, 100 g of the substance (X) refers to 100 g by weight excluding hydration water.
The measurement by the ion-selective electrode method is performed using 2 mM of the substance (X) relative to a 1 mM aqueous MgCl2 solution having a temperature of 20° C. and a pH of 7.
Each substance (X) was subjected to measurement of the amount (g) of magnesium captured per 100 g of the substance (X) by the ion-selective electrode method as follows. For (X-5), the amount of magnesium captured per 100 g of Na2WO4 contained in (X-5) was measured. For (X-16), the amount of magnesium captured per 100 g of adenosine triphosphate disodium contained in (X-16) was measured.
The measurement by the ion-selective electrode method was performed using 2 mM of the substance (X) relative to a 1 mM aqueous MgCl2 solution having a temperature of 20° C. and a pH of 7.

Row | Amount of magnesium (g) captured per 100 g of substance (X) [g] | SMILES
1 | 5 | O=P([O-])([O-])OP(=O)([O-])OP(=O)([O-])[O-].[Na+].[Na+].[Na+].[Na+].[Na+] [Example X-1, Pentasodium triphosphate]
2 | 3 | CC(=O)CC(C)=O [Example X-2, Acetylacetone]
3 | 3 | CC(=O)CC(=O)c1ccccc1 [Example X-3, Benzoylacetone]
4 | 2 | CC(=O)CCC(=O)O [Example X-4, Levulinic acid]
5 | 2 | O.O.[Na+].[Na+].[O]=[W](=[O])([O-])[O-] [Example X-5, Sodium tungstate dihydrate]
6 | 2 | NCC(=O)NCC(=O)O [Example X-6, Glycylglycine] (H-Gly-Gly-OH)
7 | 2 | N[C@@H](CCC(=O)O)C(=O)O [Example X-7, Glutamic acid]
8 | 15 | O=C(O)CC(O)C(=O)O (stereo not shown) [Example X-8, Malic acid]
9 | 20 | O=C(O)CC(O)(CC(=O)O)C(=O)O [Example X-9, Citric acid]
10 | 15 | O=C[C@H](O)[C@@H](O)[C@H](O)[C@H](O)C(=O)O [Example X-11, Glucuronic acid]
11 | 10 | O=C(O)CN(CCN(CC(=O)O)CC(=O)O)CC(=O)O [Example X-12, Ethylenediaminetetraacetic acid]
12 | 8 | O=C(O)CNCC(=O)O [Example X-13, Iminodiacetic acid]
13 | 9 | O=C(O)C(O)C(O)C(=O)O (stereo not shown) [Example X-15, Tartaric acid]

Row | SMILES | Amount of magnesium (g) captured per 100 g of substance (X) [g]
14 | O=C(O)[C@H](O)[C@@H](O)[C@H](O)[C@H](O)CO [Example X-10, Gluconic acid] | 30
15 | Oc1cccc2cccnc12 [Example X-14, 8-Quinolinol] | 2
16 | Nc1ncnc2c1ncn2[C@@H]1O[C@H](COP(=O)([O-])OP(=O)([O-])OP(=O)(O)O)[C@@H](O)[C@H]1O.O.O.O.[Na+].[Na+] [Example X-16, Adenosine triphosphate disodium trihydrate] | 5

From patent US20250268852A1, “MICROBIOTA IMPROVING AGENT” (SANYO CHEMICAL INDUSTRIES, LTD., priority 2022, published 2025)
